In PubChem BioAssay (NCI):
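1) Cells in 96-well plates. 2) Compound, 48 h, 5 concentrations. 3) Linear interpolation between surrounding doses. 4) Unreached endpoint = highest concentration. The concentration for 50% growth inhibition is given as GI50. TGI: concentration producing complete growth inhibition.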

How the values were obtained:
Assay in all cases: DTP human tumour cell line panel, 48 h
786-0 renal = test system: 786-0 renal
A498 renal = test system: A498 renal
A549 NSCLC = test system: A549 NSCLC
ACHN renal = test system: ACHN renal
BT-549 breast = test system: BT-549 breast
CAKI-1 renal = test system: CAKI-1 renal
CCRF-CEM leukemia = test system: CCRF-CEM leukemia
COLO 205 colon = test system: COLO 205 colon
DU-145 prostate = test system: DU-145 prostate
EKVX NSCLC = test system: EKVX NSCLC
HCC-2998 colon = test system: HCC-2998 colon
HCT-116 colon = test system: HCT-116 colon
HCT-15 colon = test system: HCT-15 colon
HL-60(TB) leukemia = test system: HL-60(TB) leukemia
HOP-62 NSCLC = test system: HOP-62 NSCLC
HOP-92 NSCLC = test system: HOP-92 NSCLC
HS 578T breast = test system: HS 578T breast
HT29 colon = test system: HT29 colon
IGROV1 ovarian = test system: IGROV1 ovarian
K-562 leukemia = test system: K-562 leukemia
KM12 colon = test system: KM12 colon
LOX IMVI melanoma = test system: LOX IMVI melanoma
M14 melanoma = test system: M14 melanoma
MCF7 breast = test system: MCF7 breast
MDA-MB-231 breast = test system: MDA-MB-231 breast
MOLT-4 leukemia = test system: MOLT-4 leukemia
NCI-H226 lung = test system: NCI-H226 lung
NCI-H23 lung = test system: NCI-H23 lung
NCI-H460 lung = test system: NCI-H460 lung
NCI-H522 lung = test system: NCI-H522 lung
NCI/ADR-RES ovarian = test system: NCI/ADR-RES ovarian
OVCAR-3 ovarian = test system: OVCAR-3 ovarian
OVCAR-4 ovarian = test system: OVCAR-4 ovarian
OVCAR-5 ovarian = test system: OVCAR-5 ovarian
OVCAR-8 ovarian = test system: OVCAR-8 ovarian
PC-3 prostate = test system: PC-3 prostate
RPMI-8226 leukemia = test system: RPMI-8226 leukemia
SF-268 CNS = test system: SF-268 CNS
SF-295 CNS = test system: SF-295 CNS
SF-539 CNS = test system: SF-539 CNS
SK-MEL-2 melanoma = test system: SK-MEL-2 melanoma
SK-MEL-28 melanoma = test system: SK-MEL-28 melanoma
SK-MEL-5 melanoma = test system: SK-MEL-5 melanoma
SK-OV-3 ovarian = test system: SK-OV-3 ovarian
SN12C renal = test system: SN12C renal
SNB-19 CNS = test system: SNB-19 CNS
SNB-75 CNS = test system: SNB-75 CNS
SR leukemia = test system: SR leukemia
SW-620 colon = test system: SW-620 colon
T-47D breast = test system: T-47D breast
TK-10 renal = test system: TK-10 renal
U251 CNS = test system: U251 CNS
UACC-257 melanoma = test system: UACC-257 melanoma
UACC-62 melanoma = test system: UACC-62 melanoma
UO-31 renal = test system: UO-31 renal

COc1ccc(-c2c(-c3cc4c(c(OC)c3OC)OCO4)noc2N)cc1
GI50 (786-0 renal): 0.49 µM
TGI (786-0 renal): 41.6 µM
GI50 (A498 renal): 0.374 µM
TGI (A498 renal): > 100 µM
GI50 (A549 NSCLC): 0.544 µM
TGI (A549 NSCLC): > 100 µM
GI50 (ACHN renal): 1.43 µM
TGI (ACHN renal): > 100 µM
GI50 (BT-549 breast): 0.507 µM
TGI (BT-549 breast): 17 µM
GI50 (CAKI-1 renal): 0.404 µM
TGI (CAKI-1 renal): > 100 µM
GI50 (CCRF-CEM leukemia): 0.4 µM
TGI (CCRF-CEM leukemia): > 100 µM
GI50 (COLO 205 colon): 0.277 µM
TGI (COLO 205 colon): 1.25 µM
GI50 (DU-145 prostate): 0.502 µM
TGI (DU-145 prostate): > 100 µM
GI50 (EKVX NSCLC): 4.12 µM
TGI (EKVX NSCLC): > 100 µM
GI50 (HCC-2998 colon): 0.575 µM
TGI (HCC-2998 colon): 6.96 µM
GI50 (HCT-116 colon): 0.34 µM
TGI (HCT-116 colon): 15.9 µM
GI50 (HCT-15 colon): 0.391 µM
TGI (HCT-15 colon): > 100 µM
GI50 (HL-60(TB) leukemia): 0.214 µM
TGI (HL-60(TB) leukemia): 1.46 µM
GI50 (HOP-62 NSCLC): 0.457 µM
TGI (HOP-62 NSCLC): > 100 µM
GI50 (HOP-92 NSCLC): 0.679 µM
TGI (HOP-92 NSCLC): 46.3 µM
GI50 (HS 578T breast): 0.365 µM
TGI (HS 578T breast): > 100 µM
GI50 (HT29 colon): 0.279 µM
TGI (HT29 colon): 3.15 µM
GI50 (IGROV1 ovarian): 1.1 µM
TGI (IGROV1 ovarian): > 100 µM
GI50 (K-562 leukemia): 0.0688 µM
TGI (K-562 leukemia): > 100 µM
GI50 (KM12 colon): 0.179 µM
TGI (KM12 colon): > 100 µM
GI50 (LOX IMVI melanoma): 0.48 µM
TGI (LOX IMVI melanoma): > 100 µM
GI50 (M14 melanoma): 0.231 µM
TGI (M14 melanoma): 3.24 µM
GI50 (MCF7 breast): 0.282 µM
TGI (MCF7 breast): > 77.5 µM
GI50 (MDA-MB-231 breast): 2.32 µM
TGI (MDA-MB-231 breast): > 62.9 µM
GI50 (MOLT-4 leukemia): 0.621 µM
TGI (MOLT-4 leukemia): > 100 µM
GI50 (NCI-H226 lung): 0.804 µM
TGI (NCI-H226 lung): > 100 µM
GI50 (NCI-H23 lung): 0.427 µM
TGI (NCI-H23 lung): > 100 µM
GI50 (NCI-H460 lung): 0.379 µM
TGI (NCI-H460 lung): > 45.2 µM
GI50 (NCI-H522 lung): 0.081 µM
TGI (NCI-H522 lung): 0.432 µM
GI50 (NCI/ADR-RES ovarian): 0.131 µM
TGI (NCI/ADR-RES ovarian): 0.741 µM
GI50 (OVCAR-3 ovarian): 0.184 µM
TGI (OVCAR-3 ovarian): 0.812 µM
GI50 (OVCAR-4 ovarian): 0.671 µM
TGI (OVCAR-4 ovarian): > 100 µM
GI50 (OVCAR-5 ovarian): 2.43 µM
TGI (OVCAR-5 ovarian): > 100 µM
GI50 (OVCAR-8 ovarian): 0.455 µM
TGI (OVCAR-8 ovarian): > 56.1 µM
GI50 (PC-3 prostate): 0.321 µM
TGI (PC-3 prostate): > 100 µM
GI50 (RPMI-8226 leukemia): 0.503 µM
TGI (RPMI-8226 leukemia): 50.9 µM
GI50 (SF-268 CNS): 0.745 µM
TGI (SF-268 CNS): > 95.8 µM
GI50 (SF-295 CNS): 0.275 µM
TGI (SF-295 CNS): > 100 µM
GI50 (SF-539 CNS): 0.32 µM
GI50 (SK-MEL-2 melanoma): 0.235 µM
GI50 (SK-MEL-28 melanoma): 0.459 µM
TGI (SK-MEL-28 melanoma): > 100 µM
GI50 (SK-MEL-5 melanoma): 0.311 µM
TGI (SK-MEL-5 melanoma): > 69.4 µM
GI50 (SK-OV-3 ovarian): 0.34 µM
TGI (SK-OV-3 ovarian): 14.3 µM
GI50 (SN12C renal): 0.792 µM
TGI (SN12C renal): > 100 µM
GI50 (SNB-19 CNS): 0.661 µM
TGI (SNB-19 CNS): > 100 µM
GI50 (SNB-75 CNS): 0.138 µM
TGI (SNB-75 CNS): 0.489 µM
GI50 (SR leukemia): 0.0376 µM
TGI (SR leukemia): 69.8 µM
GI50 (SW-620 colon): 0.235 µM
TGI (SW-620 colon): > 100 µM
GI50 (T-47D breast): 0.568 µM
TGI (T-47D breast): > 100 µM
GI50 (TK-10 renal): 0.343 µM
TGI (TK-10 renal): > 100 µM
GI50 (U251 CNS): 0.417 µM
TGI (U251 CNS): > 100 µM
GI50 (UACC-257 melanoma): 0.458 µM
TGI (UACC-257 melanoma): > 100 µM
GI50 (UACC-62 melanoma): 0.534 µM
TGI (UACC-62 melanoma): > 100 µM
GI50 (UO-31 renal): 2.69 µM
TGI (UO-31 renal): > 100 µM
